Assay results from US20250154212A1, “METHOD OF DISRUPTING MEMORY AND LIPOPEPTIDE FOR USE IN SUCH METHOD” (The Research Foundation for The State University of New York, priority 2023, published 2025).
Entries after “also recorded” stand apart in the source; their conditions may differ. Where no end group is shown, it is not given here. The star is where a group is joined. Myristoyl = CCCCCCCCCCCCCC(=O)*

Columns and labels:
[1] = system: contextual fear/threat memory; experiment: Contextual fear/threat conditioning, infusion into dorsal hippocampus, wild-type mice; assay type: in vivo, mouse; details: 10 nmol in 0.5 μl per hemisphere in hippocampus, tested 24 h post-infusion
Procedure: (§1) Mice were 8-10 weeks old at the time of cannulation and 9-11 weeks at the beginning of behavioral experiments. Mice were housed with cage-mates in plastic cages and provided with food and water ad libitum. Mice were maintained on a 12 h light/dark cycle (lights on at 7:00 am) and behavioral experiments began at 9:00 am.
(§2) Mice were injected intraperitoneally (1 ml/100 g body weight) with an anesthetic cocktail containing ketamine (10 mg/ml) and xylazine (2 mg/ml). Mice were provided with analgesic treatment prior to surgery (carprofen; 5 mg/ml). Guide cannulae (Plastics One, Roanoke, VA) were implanted bilaterally in the dorsal hippocampus (from bregma: AP-2.1 mm; L+/−1.8 mm; DV-1.2 mm) and secured to the skull with three jeweler's screws and dental cement. Antisedan (0.66 ml/100 g body weight of 0.5 mg drug/ml solution) was given via i.p. injection after surgery to reverse the anesthesia.
(§3) For 7 days following surgery, mice were handled by freely exploring the experimenter's palm for 2-5 min. Mice were trained and tested in the same conditioning box (Coulbourn Habitest, Coulboum Instruments), which consisted of a grid floor and blank walls. […] Freezing behavior (cessation of all movement except breathing) during the 4 min session was recorded by an experimenter blind to the conditions. […]

[2] = system: late-LTP in CA1 st. radiatum of hippocampal slices; experiment: Late-LTP recording (fEPSP) in hippocampal slices of wild-type mice; assay type: cell-based, mouse; details: for effect on established late-LTP (fEPSP slope), tetanized pathway / effect on baseline synaptic transmission, untetanized pathway: wild-type mice; for effect on established late-LTP (fEPSP slope), tetanized pathway: 10 μM applied to the bath 3 h post-tetanization; for effect on baseline synaptic transmission, untetanized pathway: 10 μM in bath; for potentiation after drug washout: drug applied 3 h starting 3 h post-tetanization, then 4-h washout
Procedure: Acute mouse hippocampal slices (450 μm) were prepared as previously described (17, 73). Hippocampi from 2-6-month-old male C57/B6 or PKM ζ-null mice as previously described (17) were dissected, bathed in ice-cold dissection buffer, and sliced with a McIlwain tissue slicer in a cold room (4° C.). The dissection buffer contained (in mM): 125 NaCl, 2.5 KCl, 1.25 NaH2PO4, 26 NaHCO3, 11 glucose, 10 MgCl2, and 0.5 CaCl2), and was bubbled with 95% O2/5% CO2 to maintain pH at 7.4. After dissection the slices were immediately transferred into an Oslo-type interface recording chamber (31.5±1° C.) (73). The recording superfusate consisted of (in mM): 118 NaCl, 3.5 KCl, 2.5 CaCl2), 1.3 MgSO4, 1.25 NaH2PO4, 24 NaHCO3, and 15 glucose, bubbled with 95% O2/5% CO2, with a flow rate of 0.5 ml/min. In a subset of experiments a custom-made recirculation system employing piezoelectric pumps was used for recycling the superfusate (Bartels Mikrotechnik GmbH, Dortmund, Germany) (73).
Field EPSPs were recorded with a glass extracellular recording electrode (2-5 M (2) placed in the CA1 st. radiatum, and concentric bipolar stimulating electrodes (CBBRE75 and 30200; FHC, Bowdoin, ME) were placed on either side within CA3 or CA1. Test stimulation rate was once every 30 sec, alternating every 15 sec between stimulating electrodes. Based upon a pre-established exclusion criterion, a slice was not used if fEPSP spike threshold was <2 mV on initial input-output analysis. Pathway independence was confirmed by the absence of paired-pulse facilitation between the two pathways. A single stimulating electrode was used for PLA/immunocytochemistry with a test stimulation rate of once every 30 sec. The high-frequency stimulation, optimized to produce a relatively rapid onset of protein synthesis-dependent late-LTP (74), consisted of two 100 Hz-1 s tetanic trains, at 25% of spike threshold, spaced 20 sec apart. The maximum slope of the rise of the fEPSP was analyzed on a PC using the WinLTP data acquisition program (75).
Replicates are biological because there is only one measurement for each sample. Drug/vehicle comparisons were performed blindly. Sample sizes vary for the different experimental approaches (biochemistry, slice physiology, and behavior) and were established by power analyses based on effect size estimates from published work or preliminary experiments. The observed effect sizes for binary comparisons are reported as Cohen's d and as η^2p for ANOVA effects. Multi-factor comparisons were performed using ANOVA with repeated measures, as appropriate. Two-population Student's/tests were performed to compare protein immunofluorescence intensity between control and potentiated hippocampal slices. For LTP experiments, the responses were first normalized to the mean of the 30 min period prior to tetanization (or equivalent in control pathways), and then the means over 5 min periods were used for statistical comparisons (e.g., pre-tetanization, beginning and end of drug application). Paired Student's t tests were used to compare the change in the potentiated response at time points at the beginning and end of drug application. The degrees of freedom for the critical t values of the/tests and the F values of the ANOVAs are reported as subscripts. Post-hoc multiple comparisons were performed by Newman-Keuls tests as appropriate. Statistical significance was accepted at P<0.05 or appropriate Bonferroni correction for multiple comparisons.
Now we can test the central prediction of the KIBRA-PKMζ maintenance hypothesis that decoupling PKMζ from KIBRA reverses potentiation of activated synapses. We simultaneously recorded two independent synaptic pathways in st. radiatum within a hippocampal slice. We stimulated one pathway by high-frequency tetanization to induce late-LTP, and in the second pathway we recorded low-frequency test fEPSP responses for the equivalent time. […]

[3] = system: contextual fear/threat memory in PKMζ-null mice; experiment: Contextual fear/threat conditioning, infusion into dorsal hippocampus, PKMζ-null mice; assay type: in vivo, mouse; details: 10 nmol in 0.5 μl per hemisphere in hippocampus, tested 24 h post-infusion
Procedure: as §1, §2, §3

Row | Compound | contextual fear/threat memory (% time freezing) [1] | effect on established late-LTP (fEPSP slope), tetanized pathway [2] | effect on established late-LTP (fEPSP slope), tetanized pathway ([2]; listed as z-stat) | effect on baseline synaptic transmission, untetanized pathway [2] | effect on baseline synaptic transmission, untetanized pathway ([2]; listed as z-stat) | potentiation after drug washout ([2]; wild-type) | potentiation after drug washout ([2]; wild-type, listed as z-stat) | effect on late-LTP when drug is present at tetanization ([2]; wild-type, first pathway, 150 min post-tetanization with drug) | late-LTP in second pathway after washout ([2]; wild-type, tetanized after 1-h washout) | contextual fear/threat memory (% time freezing) [3]
1 | O=S(=O)(O)c1cc(O)c2c(S(=O)(=O)O)cc(S(=O)(=O)O)cc2c1 [ζ-stat, 1-naphthol-3,6,8-trisulphonic acid] | has no effect | reverses late-LTP maintenance | reverses late-LTP | without measurably affecting synaptic transmission | no effect on baseline synaptic transmission | reversal of potentiation persisted | potentiation does not return | suppresses late-LTP | late-LTP is induced and maintained in second pathway | has no effect
2 | myr-N-FVRNSLERRSVRMKRPS-C (Myristoyl-FVRNSLERRSVRMKRPS) [K-ZAP] | – | reverses late-LTP maintenance | – | no measurable effect on baseline synaptic transmission; also recorded: no effect on untetanized pathway | – | – | – | – | – | –
